Laboratory results taken from patent US20120010264A1, “NOVEL MEDICAMENT FOR TREATING COGNITIVE IMPAIRMENT” (Dainippon Sumitomo Pharma Co., Ltd., priority 2009, published 2012).
Where two headings read alike, the source gives them in different places.

Tests used:
[1] = mouse, in vivo
[2] = post-marketing surveillance; cited from earlier work
[3] = tested on: LPS-induced cognitive impairment mouse; assay: LPS-induced cognitive impairment model, Y-maze test (alternation behavior); type: in vivo; settings: LPS i.c.v., percentage of alternation behavior in Y-maze
Method: It is known that lipopolysaccharide (LPS) can experimentally induce an inflammatory condition in brain like in Alzheimer's dementia patients. Thus, LPS-induced model is thought as a good disease model to study cognitive impairment caused by inflammation in Alzheimer's dementia (Neurosci. Res., 61, 113, 2008).
In Example 4-2, 5 μg of LPS (Eschenchia coli 055:B5, SIGMA) was intracerebroventricularly administered to a mouse (Slc:ddY mouse, 4 weeks old, male, Japan SLC, Inc.) in both ventricles, i.e. 2.5 μl of 1 mg/ml LPS was administered to each ventricle. LPS induced cognitive impairment in Y-maze test was appeared 4 days after treatment. (i.e. decrease of alternation behavior). Compound A (10, 30, 100 mg/kg, p.o., n=14-16) or rosiglitazone (1, 3, 10 mg/kg, p.o., n=8) was administered 30 minutes before the LPS administration, and 1, 2, 3 days after the LPS administration, and also 1 hour before the Y-maze test to evaluate the effect for improving cognitive function. 0.5% Methylcellulose solution was used as a solvent of each compound.

[4] = Brain delivery property: brain tissue and plasma concentration after oral administration; type: in vivo; settings: female, 10 mg/kg oral, one portion, C57BL/6J mouse; for Kp: brain and plasma, read-out: Kp value (brain/plasma AUC0-6 hr ratio); for half-life / AUC(0-t): non-fasting; for AUC(0-t): read-out: AUC0-6 hr
Method: Method: Compound A or rosiglitazone (10 mg/kg) was orally administered in one portion to a mouse (C57BL/6J: female, 11 weeks old, 3 mice at each measuring point) under non-fasting condition. Its brain tissue and plasma were sequentially sampled for 6 hours after the administration to measure the concentration of the administered-compound. Based on each mean value of the concentrations in its brain tissue and plasma measured at several time points, each elimination half-life (t1/2) and area under the curve (AUC0-6hr) of the administered-compound were calculated.

[5] = Fluid retention as side effect: hematocrit level in high-fat diet obese diabetes mice; settings: for Hematocrit level: high-fat diet mouse; for Effect on hematocrit level in mice (summary of Example 5): dose not stated
[6] = tested on: rats with scopolamine-induced cognitive impairment; assay: Scopolamine-induced cognitive impairment model, passive avoidance test; type: in vivo, rat; settings: for Step-through latency: scopolamine 0.5 mg/kg i.p., rat, mean ± standard error, n = 11, up to 300 seconds
Description: It is known that scopolamine is a muscarinic acetylcholine receptor antagonist which causes memory impairment in animals and human. Thus, in order to evaluate the efficacy of an anti-Alzheimer's drug, a scopolamine-induced cognitive-impairment model is used in many evaluation tests of cognitive function including a passive avoidance test (Eur. J. Pharmacol., 383, 231, 1999). In Example 6, the effect of Compound A and rosiglitazone on cognitive function was studied using a passive avoidance test using rats with scopolamine-induced cognitive impairment.
Compound A (3, 10, 30 mg/kg) or rosiglitazone (1, 3, 10 mg/kg) was orally administered to a rat 60 minutes before training for the passive avoidance test. Scopolamine (0.5 mg/kg) or saline was intraperitoneally administered 30 minutes before the training. In the training period, the rat was put in a bright compartment and was allowed to explore for 10 seconds. Then, a door between the bright compartment and the dark one was opened, and as the rat went into the dark compartment, the door was closed. Three seconds later, the rat was given electroconvulsive shock (0.5 mA, 3 seconds). The passive avoidance response test was carried out 24 hours after the training. The rat was put in the bright compartment and was monitored to record the time that the rat stayed in the bright compartment (step-through latency) for up to 300 seconds. Dunnett's multiple comparison test (two-sided significance level 5%) was carried out to compare the step-through latency between the scopolamine treatment group and the scopolamine+test medicament treatment group. […] 0.5% Methylcellulose solution was used as a solvent of each compound.

scavenger receptor CD36 = assay: CD36 transcription level in microglial cells by real-time RT-PCR; type: cell-based; settings: 0.5 μM, 24 hours, neonatal rat microglial cells
Method: Microglial cells derived from neonatal rats (Sumitomo Bakelite) were cultured for 24 hours in a culture medium containing Compound A (0.5 μM or 5 μM). Then, total RNA was extracted from the cells, and therewith the transcription levels of scavenger receptor CD36 and glyceraldehyde-3-phosphate dehydrogenase (GAPDH) were measured by real-time RT-PCR to calculate the CD36 transcription level as a value relative to the GAPDH transcription level. In order to compare the CD36 transcription levels treated in the different conditions, CD36 transcription level in the control that was cultured for 24 hours with only DMSO which was used as a solvent in the above cultivation of Compound A was measured, and then the relative ratio of each CD36 transcription level of Compound A per that of the control (=1) was calculated.

[7] = 3 mg/kg oral once a day for 8 weeks
[8] = 10 mg/kg oral once a day for 8 weeks

Row | Kp [4] | half-life ([4]; brain) | AUC(0-t) ([4]; brain) | half-life ([4]; plasma) | AUC(0-t) ([4]; plasma) | SMILES | Alternation behavior ([3]; 10 mg/kg p.o.) | Hematocrit level [5, 7] | Hematocrit level [5, 8] | Effect on hematocrit level in mice (summary of Example 5) [5] | Step-through latency ([6]; 3 mg/kg p.o.) | further results
1 |  |  |  |  |  | CCc1ccc(CCOc2ccc(CC3SC(=O)NC3=O)cc2)nc1 (stereo not drawn) [pioglitazone] |  |  |  |  |  | Effect on hematocrit level in mice (summary of Example 5) [1]: decreased
2 | 0.0451 | 1.06 h | 1820 ng·h/mL | 1.26 h | 40400 ng·h/mL | CN(CCOc1ccc(CC2SC(=O)NC2=O)cc1)c1ccccn1 (stereo not drawn) [Rosiglitazone, rosiglitazone] | 73.4 ± 2.7 | 44.7 ± 1.5 % | 41.1 ± 4.9 % | decreased | 164.5 ± 33.1 s | Frequency of fluid retention (peripheral edema) [2]: high; Alternation behavior ([3]; 1 mg/kg p.o.): 68.4 ± 5.0; Alternation behavior ([3]; 3 mg/kg p.o.): 71.9 ± 4.1; Hematocrit level ([5]; 0.1 mg/kg oral once a day for 8 weeks): 47.4 ± 1.9%; Hematocrit level ([5]; 0.3 mg/kg oral once a day for 8 weeks): 46.6 ± 1.9 %; Hematocrit level ([5]; 1 mg/kg oral once a day for 8 weeks): 45.6 ± 0.9 %; Change of hematocrit level vs solvent ([5]; dose of 0.3 mg/kg or more, oral once a day for 8 weeks): significantly decreased; Step-through latency ([6]; 1 mg/kg p.o.): 144.8 ± 28.3 s; Step-through latency ([6]; 10 mg/kg p.o.): 170.7 ± 30.2 s
3 | 0.154 | 4.26 h | 1500 ng·h/mL | 4.59 h | 9710 ng·h/mL | Cc1ccc(C(=O)c2cccn2C/C=C/c2ccc(COC(C)(C)C(=O)O)cc2)cc1 [Compound A, 2-Methyl-2-[(4-{(1E)-3-[2-(4-methylbenzoyl)-1H-pyrrol-1-yl]prop-1-en-1-yl}benzyl)oxy]propionic acid] | 66.5 ± 2.8 | 47.7 ± 2.0% | 48.7 ± 1.2% | did not significantly affect | 162.5 ± 28.2 s | CD36 transcription level relative to GAPDH, ratio per DMSO control (=1) (scavenger receptor CD36): 1.44; Hematocrit level ([5]; 30 mg/kg oral once a day for 8 weeks): 48.7 ± 1.5%; Effect on cognitive function (step-through latency) ([6]; single oral administration 3-30 mg/kg, scopolamine rat): improved cognitive function in a dose-dependent manner
